Where two headings read alike, the source gives them in different places.

Data set [1] can be described thus: Treatment of IR dye with oxidative and reducing reagents to degrade the dye (TABLE I). The data set is classed as physicochemical.
A further data set concerns humans. As to conditions: from MSDS sheets; cited from earlier work.
The nature of data set [2]: Attempt to precipitate the anionic chromophore of IR Dye I as insoluble salts. Type of data set: physicochemical. The settings on record: IR Dye I 0.3% in methanol; 3% solution of compound in water.
For the next data set, the system named is aquatic life. The settings on record: from MSDS sheets; cited from earlier work.
Data set [3] can be described thus: Attempt to precipitate the cationic chromophore of IR dye 66e as insoluble salts with organic acids. As to conditions: IR dye 66e 0.3% in methanol; aqueous organic acid at 3% concentration. The data set is classed as physicochemical.
Data set [4] in a line: Treatment of seasoned developer solution with Chlorox bleach solution, residual dye by LC-MS. The settings on record: Kodak 1080 Developer seasoned, diluted, 8 ml bleach diluted to 6%, 6000 rpm. The data set is classed as physicochemical. The protocol: In this example, seasoned developer solutions containing IR dye 66e were treated with commercial Chlorox® bleach solution and the degradation products were examined by LC-MS. The seasoned developer solutions were prepared in the lab after development of imaged commercially available, negative-working printing plate precursors containing IR dye 66e with Kodak 1080 Developer under conditions that account for real-life situation at the end of the processor cycle when the seasoned developer solution is being changed. The following calculation of the coating concentration in the seasoned developer solution at the end of the processing cycle takes into account that a Mercury 1035 processor will have a cycle of 3150 m^2 plates/9 gal (34 liters) of developer solution that is the tank capacity. […]
To account for the lower limit, solution C was prepared by dissolving 1.1 m^2 of printing plate coating in 100 ml of developer solution. […] The precipitate (2) and the supernatant liquid (2) were analyzed by LC-MS for the IR dye 66e using the equipment and method described above in Comparative Example 3.
Precipitate (2) was extracted in acetonitrile:isopropanol at 2.5 mg/ml. […] This reference solution (standard) was analyzed to determine the sensitivity of the instrument. […]

Data set [5] is described as follows: Treatment of IR dye 66e in methanol with Chlorox bleach solution (qualitative, titration, LC-MS). The data set is classed as physicochemical.
Data set [6] can be described thus: Treatment of seasoned developer solution with Chlorox bleach solution, residual dye by FTIR. The data set is classed as physicochemical. The settings on record: Kodak 955 Developer seasoned, 15 ml bleach diluted to 6%, 2000 rpm. The protocol: An imageable layer coating formulation was prepared with the components in TABLE II below in a solvent mixture of methyl ethyl ketone:water:isopropyl alcohol (70:20:10 weight ratio). The formulation was coated onto a sulfuric acid anodized aluminum substrate and dried in a conveyor oven at 100° C. for 1 minute to provide an imageable layer with a dry coating weight of 1.60 g/m^2. The resulting printing plate precursors were imaged at 110 mJ/cm^2 and 11 Watt using a Kodak 3244x platesetter. The imaged precursors (approx. 11 m^2) were manually developed in 1 liter of Kodak 955 Developer to produce seasoned developer solution (3).
Samples (each 50 ml) of seasoned developer solution (3) were diluted with 150 ml of water and treated with 15 ml of Chlorox® bleach solution diluted to 6% by drop wise addition while stirring at 2000 rpm. The stirring continued for another 15 minutes after the addition. The green color of the seasoned developer solution samples disappeared, forming pale yellow, slightly turbid solutions. […] The extract was concentrated about 50 times and analyzed by FTIR. […]
An imageable layer coating formulation was prepared using the components of TABLE II above except that the IR dye was S0507 from Few Chemicals GmbH. […] The extract was concentrated 50 times by evaporation under nitrogen flow and spotted onto a sodium chloride disk, dried, and analyzed by FTIR. […]

The mark [7] stands for this setting: 0.3% IR dye 66e in methanol, 23° C.
[8] abbreviates: after titration with diluted bleach.

For the molecule `O=S(=O)([O-])OOS(=O)(=O)[O-].[K+].[K+]` [Potassium persulfate], the “Change Noticed” value in data set [1] is “Brown”.
As to `O=S([O-])S(=O)(=O)[O-].[Na+].[Na+]` [Sodium metabisulfite], the “Change Noticed” value in data set [1] (0.3% IR dye 66e in methanol, Heat) is on record as “No reaction”.
In the case of `OO` [Hydrogen peroxide], in the data set on humans, the “carcinogenic and mutagenic potential for humans” value was “potential carcinogenic and mutagenic for humans”. For the same molecule, the “Change Noticed” value in data set [1] (0.3% IR dye 66e in methanol, NaOH, room temperature) is “Pink precipitate”; in data set [1] (0.3% IR dye 66e in methanol, Sulfuric acid, 1%, 23° C.), “Black”; in data set [1] (0.3% IR dye 66e in methanol, Sulfuric acid, 1%, Heat), “Dye bleached pink”.
Regarding `O=C1CCC(=O)N1Br` [N-Bromo-succinimide], in data set [1], the “Change Noticed” value was “Dye bleached pink”.
With `O=S([O-])O.[Na+]` [Sodium hydrogen sulfite], the “Change Noticed” value in data set [1] is given as “No reaction”.
Turning to `CCCCCCCCCCCCCCCCCC[N+](C)(C)Cc1ccccc1.[Cl-]` [benzyl stearyl dimethyl ammonium chloride], the “precipitation of IR Dye I” value in data set [2] is “None of these compounds precipitated IR Dye I”.
For the molecule `O=C([O-])c1ccccc1.[Cu+]` [Cu(I) benzoate], the “Change Noticed” value in data set [1] was “Dye bleached pink”.
Still for that read-out and setting: with `O=S([O-])[O-].[Na+].[Na+]` [Na sulfite] the entry was “Some bleaching,”.
For `[Cl][Fe]([Cl])[Cl]` [Ferric chloride], the “toxicity to aquatic life” value with aquatic life is recorded as “toxic to aquatic life”. For the same molecule, the “Change Noticed” value in data set [1] (setting [7]) is given as “Black”.
Take naphthalene sulfonic acid: the “precipitation of IR dye 66e” value in data set [3] is given as “None of these organic acids were useful to precipitate the IR dye 66e”.
`[O-][Cl+3]([O-])([O-])O` [Perchloric acid]: in data set [1], the “Change Noticed” value is reported as “Dye bleached pink”.
Take `CN1/C(=C/C=C2\CCCC(/C=C/C3=[N+](C)c4ccccc4C3(C)C)=C2Sc2ccccc2)C(C)(C)c2ccccc21` [IR dye 66e]: in data set [4], the “residual dye in supernatant liquid (2) by LC-MS” value is “No trace of IR dye 66e was found”. The “change of dye solution on bleach treatment” value in data set [5] (0.3% in methanol, liberal amount of Chlorox bleach solution (3.6% sodium hypochlorite), room temperature, shaking) was “color change from green to light yellow and a yellow precipitate was formed”. In data set [5] (20 ml solution B titrated with 4.8 ml of 5% bleach (insufficient hypochlorite)), the “change of dye solution, incomplete degradation” value was “became reddish-brown”. For the same molecule, in data set [5] (setting [8]), the “residual dye in filtrate (1) by LC-MS” value was “did not contain IR dye 66e” and the “residual dye in precipitate (1) by LC-MS” value is “gave a signal for the IR dye 66e”. In addition, the “original dye co-precipitated with its degradation products” value in data set [5] (estimated, precipitate (1)) was “about 1%”. The “undiluted Chlorox bleach solution needed to bleach 1 mg of dye” value in data set [5] (titration, per 1 mg dye, magnetic stirrer) is 0.007463 mL. For the same molecule, the “Chlorox bleach solution needed for degradation of 1 g of dye” value in data set [5] (titration, per 1 g dye) stood at 7.46 mL.
In the case of `C[N+](C)(C)Cc1ccccc1.[Cl-]` [benzyl trimethyl ammonium chloride], the “precipitation of IR Dye I” value in data set [2] is “None of these compounds precipitated IR Dye I”.
With `[Cl][Fe][Cl]` [Ferrous chloride], the “toxicity to aquatic life” value with aquatic life was “toxic to aquatic life”. In addition, in data set [1] (setting [7]), the “Change Noticed” value was “Black”.
`CC(=O)OCCN1/C(=C/C=C2\CCC(/C=C/C3=[N+](CCOC(C)=O)c4ccc5cc(S(=O)(=O)O)ccc5c4C3(C)C)=C2N(c2ccccc2)c2ccccc2)C(C)(C)c2c1ccc1cc(S(=O)(=O)[O-])ccc21` [IR Dye I]: in data set [6], the “residual dye in extract of sediment (3) or supernatant liquid (3) by FTIR” value is on record as “No residual IR Dye I was found”.
On to `O=[N+]([O-])[O-].O=[N+]([O-])[O-].O=[N+]([O-])[O-].O=[N+]([O-])[O-].O=[N+]([O-])[O-].O=[N+]([O-])[O-].[Ce+4].[NH4+].[NH4+]` [Ceric ammonium nitrate], for which, in data set [1], the “Change Noticed” value was “Dye bleached pink”.
As to `N.N.O=S(=O)(O)OOS(=O)(=O)O` [Ammonium persulfate], the “toxicity to aquatic life” value with aquatic life is “toxic to aquatic life”. In addition, in data set [1] (setting [7]), the “Change Noticed” value is reported as “Dye bleached pink”.

The record behind these values is patent US20110236822A1, “METHOD OF TREATING SEASONED DEVELOPER SOLUTION” (priority 2010, published 2011).
